Source: ChEMBL document CHEMBL1255547, “Preparation and characterization of novel 4-bromo-3,4-dimethyl-1-phenyl-2-phospholene 1-oxide and the analogous phosphorus heterocycles or phospha sugars” (Bioorg Med Chem Lett, 2010)

Tested on: U-937
Assay: Cytotoxicity against human U937 cells after 48 hrs by MTT assat
Format: functional, cell-based
Details: U-937, 48 h

SMILES | IC50 [µM]
O=P1(c2ccccc2)C=CCC1 (configuration not stated) | > 1000
CC1=CP(=O)(c2ccccc2)CC1 (configuration not stated) | 900
CC1=CP(=O)(c2ccccc2)CC1C (configuration not stated) | 350
O=P1(c2ccccc2)C=CC(Br)C1 (configuration not stated) | > 1000
CC1=CP(=O)(c2ccccc2)CC1Br (configuration not stated) | 87
CC1=CP(=O)(c2ccccc2)CC1(C)Br (configuration not stated) | 5.6
CCC1=CP(=O)(c2ccccc2)CC1Br (configuration not stated) | > 1000
